Test system: orthotopic 4T1 breast tumors
Test: PET-CT imaging of tumor accumulation in orthotopic 4T1 breast tumor mice
Type: in vivo, Balb/c mice
Conditions: scans at 10 min, 2, 6, 12, 24, 48 h

In the case of “Cys-Tyr-Ahx-LinTT1 [LinTT1-Tyr-^124I-PS]”, the “time post injection at which tumor accumulation is seen by PET” value is reported as 2 h.
